Read-outs that look alike come from different tables or passages of the source.
Tests used:
Type in all cases: in vivo
[1] = system: ABUTH; experiment: Pre-emergence biological efficacy (Table 3); settings: Abutilon theophrasti, 312 h, after 13 days, read-out: evaluation (100=total damage to plant; 0=no damage to plant)
Protocol: (§1) Seeds of weeds and/or crops were sown in standard soil in pots. After cultivation for one day under controlled conditions in a glasshouse (at 24/19° C., day/night; 16 hours light), the plants were sprayed with an aqueous spray solution derived from the formulation of the technical active ingredient in a small amount of acetone and a special solvent and emulsifier mixture referred to as AMA (11.12% Emulsogen EL360 TM+44.44% N-methylpyrrolidone+44.44% Dowanol DPM glycol ether), to create a 50 g/l solution which was then diluted using 0.2% Genapol X080 as diluent to give the desired final dose of test compound.
(§2) The test plants were then grown under controlled conditions in the glasshouse (at 24/18° C., day/night; 15 hours light; 50% humidity) and watered twice daily. After 13 days the test was evaluated (100=total damage to plant; 0=no damage to plant).

[2] = system: AMARE; experiment: Pre-emergence biological efficacy (Table 3); settings: Amaranthus retroflexus, 312 h, 1000 g/ha, after 13 days, read-out: evaluation (100=total damage to plant; 0=no damage to plant)
Protocol: as §1, §2

[3] = system: IPOHE; experiment: Pre-emergence biological efficacy (Table 3); settings: Ipomoea hederacea, 312 h, 1000 g/ha, after 13 days, read-out: evaluation (100=total damage to plant; 0=no damage to plant)
Protocol: as §1, §2

[4] = system: STEME; experiment: Pre-emergence biological efficacy (Table 3); settings: 312 h, after 13 days, read-out: evaluation (100=total damage to plant; 0=no damage to plant)
Protocol: as §1, §2

[5] = system: ZEAMX; experiment: Pre-emergence biological efficacy (Table 3); settings: 312 h, 1000 g/ha, after 13 days, read-out: evaluation (100=total damage to plant; 0=no damage to plant)
Protocol: as §1, §2

[6] = system: weeds and/or crops; experiment: Post-emergence biological efficacy (Table 4); settings: 312 h, 1000 g/ha, evaluated after 13 days
Protocol: as §1, with “14 days” for “one day”, “F50” for “AMA”
as §2

[7] = STEME, read-out: damage to plant STEME (100=total damage; 0=no damage)
[8] = ZEAMX, read-out: damage to plant ZEAMX (100=total damage; 0=no damage)
[9] = Amaranthus retroflexus, AMARE, read-out: damage to plant AMARE (100=total damage; 0=no damage)
[10] = Echinochloa crus-galli, ECHCG, read-out: damage to plant ECHCG (100=total damage; 0=no damage)
[11] = Ipomoea hederacea, IPOHE, read-out: damage to plant IPOHE (100=total damage; 0=no damage)
[12] = Abutilon theophrasti, ABUTH, read-out: damage to plant ABUTH (100=total damage; 0=no damage)

O=C(O)C(F)(F)c1cccc(O)c1 [Compound 1-5, 2,2-Difluoro-2-(3-hydroxyphenyl)acetic acid]
pest or weed control at 1000 g/ha [1]: 10% | pest or weed control at 1000 g/ha [2]: 10% | pest or weed control at 1000 g/ha [3]: 20% | pest or weed control at 1000 g/ha [4]: 20% | plant injury at 1000 g/ha [5]: 10% | pest or weed control at 1000 g/ha [6, 7]: 20% | pest or weed control at 1000 g/ha [6, 8]: 10% | pest or weed control at 1000 g/ha [6, 9]: 20% | pest or weed control at 1000 g/ha [6, 10]: 10% | pest or weed control at 1000 g/ha [6, 11]: 20%

O=C(O)C(F)(F)c1cc(O)ccc1Cl [Compound 1-61, 2-(2-Chloro-5-hydroxyphenyl)-2,2-difluoroacetic acid]
pest or weed control at 1000 g/ha [1]: 0% | pest or weed control at 1000 g/ha [2]: 20% | pest or weed control at 1000 g/ha [3]: 0% | pest or weed control at 1000 g/ha [4]: 0% | plant injury at 1000 g/ha [5]: 0% | pest or weed control at 1000 g/ha [6, 7]: 10% | pest or weed control at 1000 g/ha [6, 8]: 10% | pest or weed control at 1000 g/ha [6, 12]: 10% | pest or weed control at 1000 g/ha [6, 9]: 10% | pest or weed control at 1000 g/ha [6, 11]: 20%

O=C(O)C(F)(F)c1cc(-c2ccc(F)cc2)ccc1Cl [Compound 1-64, 2-(4-Chloro-4′-fluoro-[1,1′-biphenyl]-3-yl)-2,2-difluoroacetic acid]
pest or weed control at 1000 g/ha [1]: 0% | pest or weed control at 1000 g/ha [2]: 0% | pest or weed control at 1000 g/ha [3]: 10% | pest or weed control at 1000 g/ha [4]: 0% | plant injury at 1000 g/ha [5]: 10% | pest or weed control at 1000 g/ha [6, 7]: 0% | pest or weed control at 1000 g/ha [6, 8]: 40% | pest or weed control at 1000 g/ha [6, 12]: 0% | pest or weed control at 1000 g/ha [6, 9]: 50% | pest or weed control at 1000 g/ha [6, 11]: 50%

O=C(O)C(F)(F)c1c(Cl)cccc1[N+](=O)[O-] [Compound 1-67, 2-(2-Chloro-6-nitrophenyl)-2,2-difluoroacetic acid]
pest or weed control at 1000 g/ha [1]: 0% | pest or weed control at 1000 g/ha [2]: 0% | pest or weed control at 1000 g/ha [3]: 30% | pest or weed control at 1000 g/ha [4]: 0% | plant injury at 1000 g/ha [5]: 10% | pest or weed control at 1000 g/ha [6, 7]: 10% | pest or weed control at 1000 g/ha [6, 8]: 10% | pest or weed control at 1000 g/ha [6, 12]: 10% | pest or weed control at 1000 g/ha [6, 9]: 30% | pest or weed control at 1000 g/ha [6, 11]: 60%

Nc1cc(Cl)c(Cl)c(C(F)(F)C(=O)O)c1 [Compound 1-77, 3-[carboxy(difluoro)methyl]-4,5-dichloroanilinium]
pest or weed control at 1000 g/ha [1]: 10% | pest or weed control at 1000 g/ha [2]: 10% | pest or weed control at 1000 g/ha [3]: 30% | pest or weed control at 1000 g/ha [4]: 10% | plant injury at 1000 g/ha [5]: 0% | pest or weed control at 1000 g/ha [6, 7]: 30% | pest or weed control at 1000 g/ha [6, 8]: 10% | pest or weed control at 1000 g/ha [6, 9]: 60% | pest or weed control at 1000 g/ha [6, 10]: 0% | pest or weed control at 1000 g/ha [6, 11]: 10%

O=C(O)C(F)(F)c1cc(-c2ccc(F)cc2)cc(Cl)c1Cl [Compound 1-78, 2-(4,5-Dichloro-4′-fluoro-[1,1′-biphenyl]-3-yl)-2,2-difluoroacetic acid]
pest or weed control at 1000 g/ha [2]: 0% | pest or weed control at 1000 g/ha [3]: 0% | pest or weed control at 1000 g/ha [4]: 0% | plant injury at 1000 g/ha [5]: 0% | pest or weed control at 1000 g/ha [6, 7]: 0% | pest or weed control at 1000 g/ha [6, 8]: 30% | pest or weed control at 1000 g/ha [6, 12]: 10% | pest or weed control at 1000 g/ha [6, 9]: 50% | pest or weed control at 1000 g/ha [6, 11]: 40%

COc1c(Cl)cc(Cl)c(Cl)c1C(F)(F)C(=O)O [Compound 1-82, 2,2-Difluoro-2-(2,3,5-trichloro-6-methoxy-phenyl)acetic acid]
pest or weed control at 1000 g/ha [2]: 60% | pest or weed control at 1000 g/ha [3]: 20% | pest or weed control at 1000 g/ha [4]: 30% | plant injury at 1000 g/ha [5]: 0% | pest or weed control at 1000 g/ha [6, 7]: 10% | pest or weed control at 1000 g/ha [6, 8]: 20% | pest or weed control at 1000 g/ha [6, 12]: 20% | pest or weed control at 1000 g/ha [6, 9]: 60% | pest or weed control at 1000 g/ha [6, 11]: 30%

From US20240251792A1, “WEED CONTROL METHOD” (SYNGENTA CROP PROTECTION AG, priority 2021, published 2024)
